In patent US7323469B2, “7H-pyrrolo[2,3-d]pyrimidine derivatives” (Novartis AG, priority 2001, dated 2008) one finds melting point data, which are given here for 33 compounds.

Compound `C[C@@H](Nc1ncnc2[nH]c(-c3ccc(CNC4CCOCC4)cc3)cc12)c1ccccc1` [Example 16b, ((R)-1-Phenyl-ethyl)-(6-{4-[(tetrahydro-pyran-4-ylamino)-methyl]-phenyl}-7H-pyrrolo[2,3-d]pyrimidin-4-yl)-amine] had a melting point of 253 to 255 °C.
Under `C[C@@H](Nc1ncnc2[nH]c(-c3ccc(CN4CCN(C)CC4)cc3)cc12)c1ccccc1` [Example 9, {6-[4-(4-Methyl-piperazin-1-ylmethyl)-phenyl]-7H-pyrrolo[2,3-d]pyrimidin-4-yl}-((R)-1-phenyl-ethyl)-amine] stands 248 to 250 °C.
The value for `CN(C)CC(=O)NCc1ccc(-c2cc3c(Nc4ccc(F)c(Cl)c4)ncnc3[nH]2)cc1` [Example 46, N-{4-[4-(3-Chloro-4-fluoro-phenylamino)-7H-pyrrolo[2,3-d]pyrimidin-6-yl]-benzyl}-2-dimethylamino-acetamide] was 278 to 282 °C; that for `CN(C)Cc1ccc(-c2cc3c(Nc4cccc(Cl)c4)ncnc3[nH]2)cc1.Cl` was 280 to 283 °C.
`O=C(CCN1CCCCC1)NCc1ccc(-c2cc3c(Nc4ccc(F)c(Cl)c4)ncnc3[nH]2)cc1` [Example 61, N-{4-[4-(3-Chloro-4-fluoro-phenylamino)-7H-pyrrolo[2,3-d]pyrimidin-6-yl]-benzyl}-3-piperidin-1-yl-propionamide]: the melting point was in the range of 230 to 235 °C.
Take `Cc1cccc(CNc2ncnc3[nH]c(-c4ccc(CN5CCCCC5)cc4)cc23)c1` [Example 107d, (3-Methyl-benzyl)-[6-(4-piperidin-1-ylmethyl-phenyl)-7H-pyrrolo[2,3-d]pyrimidin-4-yl]-amine]: the melting point is 246 to 248 °C.
The value for `C[C@@H](Nc1ncnc2[nH]c(-c3ccc(CNC(=O)CN(C)C)cc3)cc12)c1ccccc1` [Example 44, 2-Dimethylamino-N-{4-[4-((R)-1-phenyl-ethyl-amino)-7H-pyrrolo[2,3-d]pyrimidin-6-yl]-benzyl}-acetamide] was 263 to 266 °C; that for `Cc1cccc(CNc2ncnc3[nH]c(-c4ccc(CN5CCCC5)cc4)cc23)c1` [Example 107h, (3-Methyl-benzyl)-[6-(4-pyrrolidin-1-ylmethyl-phenyl)-7H-pyrrolo[2,3-d]pyrimidin-4-yl]-amine] was 241 to 243 °C.
The value for `CC1CN(Cc2ccc(-c3cc4c(Nc5ccc(F)c(Cl)c5)ncnc4[nH]3)cc2)CC(C)N1` (stereo not drawn) [Example 8, (3-Chloro-4-fluoro-phenyl)-{6-[4-(3,5-dimethyl-piperazin-1-ylmethyl)-phenyl]-7H-pyrrolo[2,3-d]pyrimidin-4-yl}-amine] was 261 to 263 °C; that for `Clc1ccc(Cl)c(CNc2ncnc3[nH]c(-c4ccc(CN5CCCC5)cc4)cc23)c1` [Example 103, (2,5-Dichloro-benzyl)-[6-(4-pyrrolidin-1-ylmethyl-phenyl)-7H-pyrrolo[2,3-d]pyrimidin-4-yl]-amine] was 266 to 268 °C; that for `C[C@@H](Nc1ncnc2[nH]c(-c3ccc(CNC(=O)c4ccccn4)cc3)cc12)c1ccccc1` [Example 57, Pyridine-2-carboxylic acid 4-[4-((R)-1-phenyl-ethylamino)-7H-pyrrolo[2,3-d]pyrimidin-6-yl]-benzylamide] was 221 to 223 °C.
The value for `C[C@@H](Nc1ncnc2[nH]c(-c3ccc(CN4CCN(C)CC4)cc3)cc12)c1ccc(Cl)cc1` [Example 77, [(R)-1-(4-Chloro-phenyl)-ethyl]-{6-[4-(4-methyl-piperazin-1-ylmethyl)-phenyl]-7H-pyrrolo[2,3-d]pyrimidin-4-yl}-amine] was 232 to 233 °C; that for `C[C@@H](Nc1ncnc2[nH]c(-c3ccc(CNC(=O)CN4CCCCC4)cc3)cc12)c1ccccc1` [Example 40, N-{4-[4-((R)-1-Phenyl-ethylamino)-7H-pyrrolo[2,3-d]pyrimidin-6-yl]-benzyl}-2-piperidin-1-yl-acetamide] was 194 to 196 °C; that for `CN1CCN(Cc2ccc(-c3cc4c(NCc5cccc(Cl)c5)ncnc4[nH]3)cc2)CC1` [Example 89, (3-Chloro-benzyl)-{6-[4-(4-methyl-piperazin-1-ylmethyl)-phenyl]-7H-pyrrolo[2,3-d]pyrimidin-4-yl}-amine] was 235 to 237 °C.
Compound `CCN1CCN(CC(=O)NCc2ccc(-c3cc4c(Nc5ccc(F)c(Cl)c5)ncnc4[nH]3)cc2)CC1` [Example 47, N-{4-[4-(3-Chloro-4-fluoro-phenylamino)-7H-pyrrolo[2,3-d]pyrimidin-6-yl]-benzyl}-2-(4-ethyl-piperazin-1-yl)-acetamide] came in with a melting point of 245 to 247 °C.
The value for `Cc1cc2c(F)c(Oc3ncnc4[nH]c(-c5ccc(CN6CCOCC6)cc5)cc34)ccc2[nH]1` [Example 143, 4-(4-Fluoro-2-methyl-1H-indol-5-yloxy)-6-(4-morpholin-4-ylmethyl-phenyl)-7H-pyrrolo[2,3-d]pyrimidine] was 280 to 282 °C; that for `C[C@@H](Nc1ncnc2[nH]c(-c3cccc(CN4CCCCC4)c3)cc12)c1ccccc1` [Example 30, ((R)-1-Phenyl-ethyl)-[6-(3-piperidin-1-ylmethyl-phenyl)-7H-pyrrolo[2,3-d]pyrimidin-4-yl]-amine] was 108 to 110 °C; that for `CN(C)Cc1ccc(-c2cc3c(Nc4ccc(F)c(Cl)c4)ncnc3[nH]2)cc1` [Example 1, (3-Chloro-4-fluoro-phenyl)-[6-(4-dimethylaminomethyl-phenyl)-7H-pyrrolo[2,3-d]pyrimidin-4-yl]-amine] was 274 to 276 °C.
Compound `COc1cccc(CNc2ncnc3[nH]c(-c4ccc(CN5CCCC5)cc4)cc23)c1` [Example 106, (3-Methoxy-benzyl)-[6-(4-pyrrolidin-1-ylmethyl-phenyl)-7H-pyrrolo[2,3-d]pyrimidin-4-yl]-amine] came in with a melting point of 220 to 222 °C.
The value for `CCN1CCN(Cc2cccc(-c3cc4c(Nc5ccc(F)c(Cl)c5)ncnc4[nH]3)c2)CC1` [Example 35, (3-Chloro-4-fluoro-phenyl)-{6-[3-(4-ethyl-piperazin-1-ylmethyl)-phenyl]-7H-pyrrolo[2,3-d]pyrimidin-4-yl}-amine] was 238 to 240 °C; that for `CCN(CC)CCNCc1ccc(-c2cc3c(Nc4ccc(F)c(Cl)c4)ncnc3[nH]2)cc1` [Example 8c, N-{4-[4-(3-Chloro-4-fluoro-phenylamino)-7H-pyrrolo[2,3-d]pyrimidin-6-yl]-benzyl}-N′,N′-diethyl-ethane-1,2-diamine] was 229 to 231 °C.
The value for `CN1CCN(Cc2cccc(-c3cc4c(Nc5ccc(F)c(Cl)c5)ncnc4[nH]3)c2)CC1` [Example 37, (3-Chloro-4-fluoro-phenyl)-{6-[3-(4-methyl-piperazin-1-ylmethyl)-phenyl]-7H-pyrrolo[2,3-d]pyrimidin-4-yl}-amine] was 221 to 223 °C; that for `Clc1ccc(Cl)c(CNc2ncnc3[nH]c(-c4ccc(CN5CCCCC5)cc4)cc23)c1` [Example 100, (2,5-Dichloro-benzyl)-[6-(4-piperidin-1-ylmethyl-phenyl)-7H-pyrrolo[2,3-d]pyrimidin-4-yl]-amine] was 258 to 260 °C; that for `CN(C)CC(=O)NCc1cccc(-c2cc3c(Nc4ccc(F)c(Cl)c4)ncnc3[nH]2)c1` [Example 64, N-{3-[4-(3-Chloro-4-fluoro-phenylamino)-7H-pyrrolo[2,3-d]pyrimidin-6-yl]-benzyl}-2-dimethylamino-acetamide] was 272 to 273 °C.
On to `C[C@@H](Nc1ncnc2[nH]c(-c3ccc(CNC(=O)CN4CCCC4)cc3)cc12)c1ccccc1` [Example 41, N-{4-[4-((R)-1-Phenyl-ethylamino)-7H-pyrrolo[2,3-d]pyrimidin-6-yl]-benzyl}-2-pyrrolidin-1-yl-acetamide], for which the melting point is 196 to 198 °C.
As to `C[C@@H](Nc1ncnc2[nH]c(-c3ccc(CN(CCO)CCO)cc3)cc12)c1ccccc1` [Example 82, 2-((2-Hydroxy-ethyl)-{4-[4-((R)-1-phenyl-ethylamino)-7H-pyrrolo[2,3-d]pyrimidin-6-yl]-benzyl}-amino)-ethanol], the melting point lay within 194 to 197 °C.
Turning to `Cc1cccc(CNc2ncnc3[nH]c(-c4ccc(CN5CCN(C)CC5)cc4)cc23)c1` [Example 107i, (3-Methyl-benzyl)-{6-[4-(4-methyl-piperazin-1-ylmethyl)-phenyl]-7H-pyrrolo[2,3-d]pyrimidin-4-yl}-amine], the melting point was 244 to 246 °C.
`C[C@@H](Nc1ncnc2[nH]c(-c3cccc(CN4CCCC4)c3)cc12)c1ccccc1` [Example 28, ((R)-1-Phenyl-ethyl)-[6-(3-pyrrolidin-1-ylmethyl-phenyl)-7H-pyrrolo[2,3-d]pyrimidin-4-yl]-amine] showed a melting point of 90 to 92 °C.
Under `Fc1ccc(Nc2ncnc3[nH]c(-c4ccc(CNCCN5CCOCC5)cc4)cc23)cc1Cl` [Example 8b, (3-Chloro-4-fluoro-phenyl)-(6-{4-[(2-morpholin-4-yl-ethyl-amino)-methyl]-phenyl}-7H-pyrrolo[2,3-d]pyrimidin-4-yl)-amine] stands 224 to 226 °C; under `COc1cccc(CNc2ncnc3[nH]c(-c4ccc(CN5CCN(C)CC5)cc4)cc23)c1` [Example 107b, (3-Methoxy-benzyl)-{6-[4-(4-methyl-piperazin-1-ylmethyl)-phenyl]-7H-pyrrolo[2,3-d]pyrimidin-4-yl}-amine], 225 to 227 °C.
`CCN1CCN(Cc2cccc(-c3cc4c(N[C@H](C)c5ccccc5)ncnc4[nH]3)c2)CC1` [Example 27, {6-[3-(4-Ethyl-piperazin-1-ylmethyl)-phenyl]-7H-pyrrolo[2,3-d]pyrimidin-4-yl}-((R)-1-phenyl-ethyl)-amine] had a melting point of 128 to 130 °C.
Under `c1ccc(COc2ccc(Nc3ncnc4[nH]c(-c5ccc(CN6CCCC6)cc5)cc34)cc2)cc1` [Example 23, (4-Benzyloxy-phenyl)-[6-(4-pyrrolidin-1-ylmethyl-phenyl)-7H-pyrrolo[2,3-d]pyrimidin-4-yl]-amine] stands 265 to 267 °C; under `COc1ccc(Nc2ncnc3[nH]c(-c4cccc(CN5CCN(C)CC5)c4)cc23)cc1O` [Example 69, 2-Methoxy-5-{6-[3-(4-methyl-piperazin-1-ylmethyl)-phenyl]-7H-pyrrolo[2,3-d]pyrimidin-4-ylamino}-phenol], 251 to 252 °C.

The term melting point denotes the temperature of the solid-liquid transition.
